Here are results for one compound from patent publication US20260335348A1, “PHARMACEUTICAL FORMS OF A CD73 INHIBITOR” (ORIC Pharmaceuticals, Inc., priority 2022, published 2026).

The structures appear in SMILES notation. In brackets after ≈: the same amount, converted by molar mass. Read-outs that look alike come from different tables or passages of the source.

A short description of data set [1]: Solubility of gentisate Form 2 of Compound 1 in water, SGF, FaSSIF and FeSSIF after 4 hours at 37 °C (HPLC). The class given is physicochemical. The method, then:
The solubility of a polymorphic form of a gentisate form of Compound 1 was measured in water, simulated gastric fluid (SGF), fasted-state simulated intestinal fluid (FaSSIF), and fed-state simulated intestinal fluid (FeSSIF) after 4 hours and at 37 °C as follows.
The SGF media was prepared by weighing 49.5 mg of NaCl and 25.4 mg of Triton X-100 into a 100-mL volumetric flask. A volume of purified water was added to the flask and the resulting mixture was sonicated until all solids were dissolved. About 1.632 mL of HCl solution (1 M) were then added and sufficient purified water to the target volume and to adjust the pH to 1.8. The solution was then diluted to volume with purified water, mixed well and the pH value was measured to be 1.83.
A FaSSIF buffer was prepared by weighing 340.8 mg of NaH2PO4, 43.0 mg of NaOH and 619.6 mg of NaCl into a 100-mL volumetric flask. A volume of purified water was added to the flask and the resulting mixture was sonicated until the solids had dissolved. A second volume of purified water was added to the flask to adjust the pH to 6.5. The solution was diluted with another volume of purified water, mixed, and the pH value was measured to be 6.54. The FaSSIF media was prepared by weighing 110.4 mg of SIF powder into a 50-mL volumetric flask to which a volume of FaSSIF dissolving buffer was added. The resulting mixture was sonicated until the SIF powder dissolved. Then mixture was then diluted to volume with FaSSIF dissolving buffer and mixed well. The FaSSIF solution was equilibrated for 2 hours at room temperature before it was used.
A FeSSIF dissolving buffer was prepared by weighing 0.82 mL of glacial acetic acid, 404.9 mg of NaOH and 1188.2 mg of NaCl into a 100-mL volumetric flask. A volume of purified water was added to the flask and the mixture was sonicated until the solids were dissolved. A second volume of purified water was added to the target volume to adjust the pH to 5.0. The solution was diluted with a volume of purified water, mixed well the pH value was measured to be 4.96. FeSSIF media was prepared by weighing 559.6 mg of SIF powder into a 50-mL volumetric flask. A volume of FeSSIF dissolving buffer was added to the flask and the resulting mixture was sonicated the SIF powder was dissolved. A second volume FeSSIF dissolving buffer was added and the resulting mixture was mixed well. The FeSSIF solution was equilibrated for 2 hours to room temperature before use.
An Agilent 1260 high performance liquid chromatography (HPLC) instrument equipped with a DAD detector, a Waters H-Class UPLC with PDA detector was used in the solubility measurements using the conditions set forth in Table 6.
About 10 mg of a gentisate Form 2 of Compound 1 (calculated by weight of the free base of Compound 1) was placed into a 3 mL glass vial and 1 mL of the respective media (water, SGF, FaSSIF and FeSSIF) was added into each glass vial. A cap was placed on each of the vials and they were rolled at 37 °C (25 rpm) for 4 hours. The suspension was then extracted into a centrifugation tube prior to centrifugation (10000 rpm, 37 °C, 5 min) and filtration (0.22 μm PTFE membrane). The resulting supernatant was analyzed by HPLC and the pH was determined. The solubility of the polymorphic form of a gentisate Form 2 of Compound 1 measured was as set forth above was as set forth in Table 7.

Data set [2] in a line: Stability of Form 2 of a gentisate form of Compound 1 under storage conditions (reverse-phase HPLC impurities, XRPD). The class given is physicochemical. To be noted: for Total impurities present: reverse-phase HPLC. The method, then:
To measure stability of the Form 2 of a gentisate form of Compound 1 under storage conditions, samples of Form 2 of a gentisate form of Compound 1 were placed in double low-density polyethylene bags with desiccant between the bags and each was placed into a high-density polyethylene drum. One drum was stored at a temperature of 5 °C and samples of the material were taken at 1 month and 3 months, and the samples were analyzed for the presence of impurities. The other drum was stored at a temperature of 25 °C and at 60% relative humidity (RH), samples of the materials were taken at 1 month and 3 months, and the samples were analyzed for the presence of impurities. The amount of the Form 2 of a gentisate form of Compound 1, and the amount ofany impurities, in each sample was measured by reverse-phase high performance liquid chromatography using the test conditions set and solvent gradients forth in Table 13 and Table 14. The samples were tested to determine the amount remaining of Form 2 at each time point, and the measurements were conducted by x-ray powder diffraction (XRPD) according to USP <941>.

Setting [3] is: storage 5 °C, initial (time = zero).
Setting [4] is: storage 25 °C and 60% RH, 1 month.
[5] abbreviates: storage 25 °C and 60% RH, 3 months.
Where [6] appears, read: storage 25 °C and 60% RH, initial (time = zero).

With `O=P(O)(O)[C@@](CO)(COCc1nn[nH]n1)OC[C@H]1O[C@@H](n2ncc3c(NC4CCCC4)nc(Cl)nc32)[C@H](O)[C@@H]1O` [Form 2 of a gentisate form of Compound 1], the “pH (of supernatant)” value in data set [1] (fasted-state simulated intestinal fluid (FaSSIF)) is recorded as 2.5; in data set [1] (fed-state simulated intestinal fluid (FeSSIF)), 4.4; in data set [1] (simulated gastric fluid (SGF)), 1.7; in data set [1] (water), 1.7. Besides, the solubility (commonly the concentration that dissolves in the medium under given conditions) at 4 h in data set [1] (fasted-state simulated intestinal fluid (FaSSIF), pH 2.5, read-out: Solubility (calculated as the amount of free base of Compound 1)) is above 10.2 mg/mL; in data set [1] (fed-state simulated intestinal fluid (FeSSIF), pH 4.4, read-out: Solubility (calculated as the amount of free base of Compound 1)) it was above 9.42 mg/mL; in data set [1] (simulated gastric fluid (SGF), pH 1.7, read-out: Solubility (calculated as the amount of free base of Compound 1)), above 9.71 mg/mL; in data set [1] (water, pH 1.7, read-out: Solubility (calculated as the amount of free base of Compound 1)), 26.2 mg/mL (≈ 43.2 mM). The XRPD entry is on record as “Crystalline” in data set [2] (storage 5 °C, 1 month); “Crystalline” in data set [2] (storage 5 °C, 3 months); “Crystalline” in data set [2] (setting [3]); “Crystalline” in data set [2] (setting [4]); “Crystalline” in data set [2] (setting [5]); “Crystalline” in data set [2] (setting [6]). In addition, the Total impurities present in data set [2] (storage 5 °C, 1 month) amounted to 4.5 % area; in data set [2] (storage 5 °C, 3 months) it was 4.2 % area; in data set [2] (setting [3]), 4.4 % area; in data set [2] (setting [4]) it was 4.5 % area; in data set [2] (setting [5]), 4.3 % area; in data set [2] (setting [6]), 4.4 % area. The Stability entry is “stable up to 3 months” in data set [2] (stored at 5 °C); “stable up to 3 months” in data set [2] (stored at 25 °C and at 60% RH).
